Data: US20070237818A1, “Controlled-release formulation of HCV protease inhibitor and methods using the same” (priority 2005, published 2007)

Key:
melanoma A375 tumors = melanoma A375 tumors implanted into the left ventricle of the heart; cited from earlier work
hepatitis-C virus = experiment: mean viral load over time in HCV infected patients (FIG. 1); assay type: in vivo; conditions: various doses and regimens
Description: Thus, in one aspect of the invention, the one or more discrete dosages are adjusted in amount to provide a highest dose or doses at a time or times corresponding to the time interval when replication of the hepatitis-C virus is highest.

[1] = solubility in water / aqueous systems; assay type: physicochemical

SMILES | distant bone metastasis to the femur and tibia (melanoma A375 tumors) | viral load over time (hepatitis-C virus) | solubility [1] [µg/mL]
CN(C)C(=O)[C@H](Cc1ccccc1)NC(=O)[C@H]1O[C@@H]1C(=O)NCCc1ccccn1 [CLIK-148] | reduced |  | 
CC(C)(C)NC(=O)N[C@H](C(=O)N1C[C@H]2[C@@H]([C@H]1C(=O)NC(CC1CCC1)C(=O)C(N)=O)C2(C)C)C(C)(C)C (stereo partly drawn) [Formula Ia, (1R,5S)—N-[3-Amino-1-(Cyclobutylmethyl)-2,3-Dioxopropyl]-3-[2(S)-[[[(1,1-Dimethylethyl)Amino]Carbonyl]Amino]-3,3-Dimethyl-1-Oxobutyl]-6,6-Dimethyl-3-Azabicyclo[3.1.0]Hexan-2(S)-Carboxamide] |  | decline in viral load is cyclical | ~600
